In US20100210558A1, “MINIGASTRIN AS A THERAPEUTIC AGENT” (priority 2007, published 2010):
Where no end group is shown, it is not given here.

What was measured:
[1] = Cytotoxicity in HIV-1 assay (MTS cell viability); settings: human
[2] = tested on: Primary Human endothelial cells (HUVEC); test: Endothelial cell migration assay; type: cell-based; settings: peptide 10 micrograms per ml, 22 hours
[3] = tested on: Human Peripheral Blood Mononuclear Cells (PBMC); test: B cell proliferation assay (SAC plus Interleukin-2, 3H-thymidine); type: cell-based; settings: peptide 10 micrograms per ml, 3 days
[4] = Cytotoxicity in HCMV assay (CellTiter 96 cell viability); type: cell-based; settings: human, MRC-5 cells (embryonal lung fibroblasts), 6 days incubation
Description: (§1) Cells were split twice a week 1:2.

[5] = tested on: hepatitis B virus (HBV) ayw strain; test: HBV replication assay (secreted HBV DNA, TaqMan PCR); settings: HepG2-2.2.15 cells; peptide 10 micrograms per ml; six days; HBV DNA in supernatant
HUVEC = test: Endothelial tube formation assay; type: cell-based, human; settings: peptide 10 micrograms per ml, 20 hours
Description: Positive control was vehicle only.

in vitro = settings: human
A549 cells = test: Propidium iodide cell cycle assay; type: cell-based, human; settings: peptide 10 micrograms per ml, 24 hours, FACS
TNF alpha production = TNF alpha production assay (LPS-stimulated macrophages, ELISA); type: cell-based; settings: human macrophages, peptide 10 micrograms per ml, lipopolysaccharide 200 ng/ml, overnight
[6] = tested on: spleen cells (IL-2, IL-4, IL-5, IFN-γ, TNF-α protein levels); test: Th1/Th2 cytokine profiling assay; type: cell-based, Balb/c mice; settings: Ovalbumin-restimulated Balb/c spleen cells; peptide 10 micrograms per ml; 72 hours
RAW 264.7 cells = test: Phagocytosis assay (Fluorescein-labeled Escherichia coli); type: cell-based, mouse; settings: peptide 10 micrograms per ml, Fluorescein-labeled E. coli, flow cytometry
Pseudomonas aeruginosa = Pseudomonas aeruginosa assay; type: cell-based; settings: peptide 10 micrograms per ml, visual reading of growth
MRSA = test: Methicillin Resistant Staphylococcus Aureus (MRSA) assay; type: cell-based; settings: peptide 10 micrograms per ml, visual reading of growth
Streptococcus pneumoniae = Streptococcus pneumoniae assay; type: cell-based; settings: peptide 10 micrograms per ml, visual reading of growth
[7] = tested on: Human Peripheral Blood Mononuclear Cells (PBMC); test: T cell proliferation assay (PHA, 3H-thymidine); type: cell-based; settings: peptide 10 micrograms per ml, 3 days
HCMV strain AD169 = test: HCMV plaque reduction assay; type: cell-based; settings: HCMV AD169 in MRC-5 cells; peptide 10 micrograms per ml; 7-10 days
Description: as §1
Ganciclovir was used as positive control.

LEEEEEAYGWMDF-NH2 [Minigastrin I]
viability at 10 micrograms per ml [1]: 100%
% inhibition of migration [2]: −3%
% of SAC/IL2 induced control [3]: 78.4%
viability at 144 h [4]: 100%
% inhibition of HBV replication in HEP G2 cells [5]: 49.9%
% inhibition of tube formation (HUVEC): 36%
viability at 144 h, 10 micrograms per ml (in vitro): 9.5%
Cell cycle analysis G0/G1 (A549 cells): 57.1
Cell cycle analysis G2/M (A549 cells): 10.3
Cell cycle analysis S (A549 cells): 32.6
% of LPS induction (TNF alpha production): 79.0%
IFNγ spleen cells; TH1 response (% of control) [6]: 79.5 % of control
IL-2 spleen cells (% of control) [6]: 149.2 % of control
IL-4 spleen cells; TH2 response (% of control) [6]: 106.6 % of control
IL-5 spleen cells; TH2 response (% of control) [6]: 66.5 % of control
TNF-a spleen cells; TH1 response (% of control) [6]: 99.0 % of control
% of control phagocytosis (RAW 264.7 cells): 145.7%
% inhibition (Pseudomonas aeruginosa): 0.0%
% inhibition (MRSA): 0.0%
% inhibition (Streptococcus pneumoniae): 0.0%
% of PHA induced control [7]: 101.1%
% plaque reduction (HCMV strain AD169): 1.4%
